According to ChEMBL document CHEMBL1146356, “Lactotriaose-containing carbosilane dendrimers: syntheses and lectin-binding activities” (Bioorg Med Chem, 2007):

Key:
Triticum aestivum [1] = assay: Binding affinity to wheat germ agglutinin
Triticum aestivum [2] = assay: Binding affinity to wheat germ agglutinin relative to Monovalent

Ka (Triticum aestivum [1])	Activity (Triticum aestivum [2])	Structure (SMILES)
1.1 10^3/M		CC(=O)N[C@H]1[C@H](O[C@H]2[C@@H](O)[C@@H](CO)O[C@@H](O[C@@H]3[C@@H](O)[C@H](O)C(O)O[C@H]3CO)[C@@H]2O)O[C@H](CO)[C@@H](O)[C@@H]1O (stereo not given in full)
1.3 10^6/M	1200	CC(=O)N[C@H]1[C@H](O[C@H]2[C@@H](O)[C@@H](CO)O[C@@H](O[C@@H]3[C@@H](O)[C@H](O)C(OCCCCCSCCC[Si](CCCSCCCCCOC4O[C@@H](CO)[C@H](O[C@@H]5O[C@H](CO)[C@H](O)[C@H](O[C@@H]6O[C@H](CO)[C@@H](O)[C@H](O)[C@H]6NC(C)=O)[C@H]5O)[C@@H](O)[C@@H]4O)(CCCSCCCCCOC4O[C@@H](CO)[C@H](O[C@@H]5O[C@H](CO)[C@H](O)[C@H](O[C@@H]6O[C@H](CO)[C@@H](O)[C@H](O)[C@H]6NC(C)=O)[C@H]5O)[C@@H](O)[C@@H]4O)CCC[Si](CCCSCCCCCOC4O[C@@H](CO)[C@H](O[C@@H]5O[C@H](CO)[C@H](O)[C@H](O[C@@H]6O[C@H](CO)[C@@H](O)[C@H](O)[C@H]6NC(C)=O)[C@H]5O)[C@@H](O)[C@@H]4O)(CCCSCCCCCOC4O[C@@H](CO)[C@H](O[C@@H]5O[C@H](CO)[C@H](O)[C@H](O[C@@H]6O[C@H](CO)[C@@H](O)[C@H](O)[C@H]6NC(C)=O)[C@H]5O)[C@@H](O)[C@@H]4O)CCC[Si](CCSCCCCCOC4O[C@@H](CO)[C@H](O[C@@H]5O[C@H](CO)[C@H](O)[C@H](O[C@@H]6O[C@H](CO)[C@@H](O)[C@H](O)[C@H]6NC(C)=O)[C@H]5O)[C@@H](O)[C@@H]4O)(CCSCCCCCOC4O[C@@H](CO)[C@H](O[C@@H]5O[C@H](CO)[C@H](O)[C@H](O[C@@H]6O[C@H](CO)[C@@H](O)[C@H](O)[C@H]6NC(C)=O)[C@H]5O)[C@@H](O)[C@@H]4O)CCSCCCCCOC4O[C@@H](CO)[C@H](O[C@@H]5O[C@H](CO)[C@H](O)[C@H](O[C@@H]6O[C@H](CO)[C@@H](O)[C@H](O)[C@H]6NC(C)=O)[C@H]5O)[C@@H](O)[C@@H]4O)O[C@H]3CO)[C@@H]2O)O[C@H](CO)[C@@H](O)[C@@H]1O (stereo not given in full)
2.8 10^6/M	2500	CC(=O)N[C@H]1[C@H](O[C@H]2[C@@H](O)[C@@H](CO)O[C@@H](O[C@@H]3[C@@H](O)[C@H](O)C(OCCCCCSCCC[Si](CCCSCCCCCOC4O[C@@H](CO)[C@H](O[C@@H]5O[C@H](CO)[C@H](O)[C@H](O[C@@H]6O[C@H](CO)[C@@H](O)[C@H](O)[C@H]6NC(C)=O)[C@H]5O)[C@@H](O)[C@@H]4O)(CCCSCCCCCOC4O[C@@H](CO)[C@H](O[C@@H]5O[C@H](CO)[C@H](O)[C@H](O[C@@H]6O[C@H](CO)[C@@H](O)[C@H](O)[C@H]6NC(C)=O)[C@H]5O)[C@@H](O)[C@@H]4O)CCC[Si](C)(C)CCC[Si](CCCSCCCCCOC4O[C@@H](CO)[C@H](O[C@@H]5O[C@H](CO)[C@H](O)[C@H](O[C@@H]6O[C@H](CO)[C@@H](O)[C@H](O)[C@H]6NC(C)=O)[C@H]5O)[C@@H](O)[C@@H]4O)(CCCSCCCCCOC4O[C@@H](CO)[C@H](O[C@@H]5O[C@H](CO)[C@H](O)[C@H](O[C@@H]6O[C@H](CO)[C@@H](O)[C@H](O)[C@H]6NC(C)=O)[C@H]5O)[C@@H](O)[C@@H]4O)CCCSCCCCCOC4O[C@@H](CO)[C@H](O[C@@H]5O[C@H](CO)[C@H](O)[C@H](O[C@@H]6O[C@H](CO)[C@@H](O)[C@H](O)[C@H]6NC(C)=O)[C@H]5O)[C@@H](O)[C@@H]4O)O[C@H]3CO)[C@@H]2O)O[C@H](CO)[C@@H](O)[C@@H]1O (stereo not given in full)
